# Tests used:
# [1] = T1 & T2 measurements of contrast agents (proton relaxation times by NMR); format: physicochemical; settings: for T1 / T2: 0.005M in 0.08% physiological saline, 10% heavy water
# Experimental: To these samples, 10% of heavy water was added to obtain a lock signal. As for the blank, 0.08% physiological saline solution was prepared. […] The respective RD values were set sufficiently high in order to eliminate their affects to the test results. […] The respective values of vd and vc as used were those values which were sufficient for parameter-fitting.
# [2] = Wash-out time / retention time in blood and tissues; settings: in vivo
# Experimental: The retention time (in blood) of the complex compound of said structural formula (I) according to the present invention is within the clinically effective range. Whereas DTPA-Gd, which is a conventional contrast agent, has a wash-out time of approximately 30 minutes, the compound of said structural formula (I) of the present invention has a wash-out time (from the tissues) of approximately 1 hour and 30 minutes. […] Today, in using MR angiography, which has undergone significant advancement, a pulse sequence is required. However, the contrast agent of the present invention can contrast vessels without such pulse sequence while it is also useful as a diagnostic contrast agent for intravenous administration.
# [3] = washed out via urination; cited from earlier work
# [4] = Comparative contrast imaging (spin-echo MRI) in mouse after abdominal administration of contrast agents; format: in vivo; settings: 0.01M at 0.2 ml/10 g, scanned 40 minutes after administration, Set 1 and Set 2
# Experimental: As for the samples for obtaining magnetic resonance imaging, the appropriate amounts of Gd-DTPA (a commercial contrast agent, Magnevist manufactured by Schering, Inc.), octa(1,4,7,10-tetraoxaundecyl)Gd-phthalocyanine (hereinafter referred to as GdPC-Fuxl-6) and octa(1,4,7,10-tetraoxaundecyl)Mn-phthalocyanine (hereinafter referred to as MnPC-Fuxl-18) were dissolved in 0.08% saline solution respectively, and the respective samples at concentration of 0.01M were used. This was in reference to the administration of commercial Gd-DTPA in human at 0.5M concentration under the condition of 0.4 ml/kg in 0.2 ml.
# The above contrast agents of 0.01M concentration were administrated to mouse at 0.2 ml/10 g (female ICR, 27˜30 g, n=6). In the experiment, […], which is the maximum value in the acceptable range of the dose of the contrast agent, were injected to more clearly ascertain their effects. As for the blank for comparison purposes, the solution of 0.08% NaCl was administered. After the abdominal administration of the contrast agents, followed by a thirty-minute wait, the anesthetics (solution of a mixture of rompum, ketamin, and distilled water at 1.5:1.5:7) were injected thereto in order to sufficiently penetrate the contrast agents into the abdominal organs (the images of which were to be examined). […]
# [5] = Stability test for contrast agents in physiological saline (UV-spectrum, separation of metal ions); format: physicochemical; settings: 0.01M in 0.08% physiological saline, 50° C., 24 hours
# [6] = Light absorption test under X-ray irradiation; format: physicochemical; settings: 2.45 mole concentration, X-ray irradiated, compared to Iron and Super-Iron
# Description: The compound of the present invention, GdPC-Fuxl-6, as obtained in Example 1, and the conventional X-ray contrast agents (Iron and Super-Iron) were spread onto the sticks respectively at 2.45 mole concentration, and X-ray was irradiated thereto for comparatively measuring the degree of light absorption.
molecule,measurement,setting,value
"O=C([O-])CN(CCN(CC(=O)[O-])CC(=O)[O-])CCN(CC(=O)[O-])CC(=O)[O-].[Gd+3] [Gd-DTPA, complex of diethylenetriaminepentaactic acid (DTPA) and gadolinium (III), reference compound]",T1,[1]; 80 MHz NMR,0.0484 s
same,T2,[1]; 80 MHz NMR,0.0441 s
same,T1,[1]; 300 MHz NMR,0.0370 s
same,T2,[1]; 300 MHz NMR,0.261 s
same,wash-out time,[2],approximately 30 minutes
same,half-life period,[3],about 14 minutes
"octa(1,4,7,10-tetraoxaundecyl)Gd-phthalocyanine [GdPC-Fuxl-6]",T1 (degree of relaxation),[1]; 80 MHz NMR,24.3 ms
same,T2 (degree of relaxation),[1]; 80 MHz NMR,17.4 ms
same,T1,[1]; 80 MHz NMR,0.0243 s
same,T2,[1]; 80 MHz NMR,0.0174 s
same,T1,[1]; 300 MHz NMR,0.0488 s
same,T2,[1]; 300 MHz NMR,0.0234 s
same,contrast effects in T1 intensified images,[4],good contrast effects
same,stability (no separation of Gd and Mn ions),[5],stabilized for 24 hours
same,degree of light absorption,[6],superior characteristics with respect to light absorption
"octa(1,4,7,10-tetraoxaundecyl)Mn-phthalocyanine [MnPC-Fuxl-18]",T1 (degree of relaxation),[1]; 80 MHz NMR,191 ms
same,T2 (degree of relaxation),[1]; 80 MHz NMR,33.5 ms
same,T1,[1]; 80 MHz NMR,0.191 s
same,T2,[1]; 80 MHz NMR,0.0335 s
same,T1,[1]; 300 MHz NMR,0.317 s
same,T2,[1]; 300 MHz NMR,0.0207 s
same,contrast effects in T1 intensified images,[4],good contrast effects
same,stability (no separation of Gd and Mn ions),[5],stabilized for 24 hours
